In US8268803B2, “5, 6-ring annulated indole derivatives and use thereof” (Merck Sharp & Dohme Corp., priority 2006, dated 2012):

Legend:
[1] = tested on: HCV replicon cells (replicon RNA level); experiment: Cell-Based HCV Replicon Assay; conditions: Hepatitis C virus, 72 h; replicon RNA level by real time PCR (Taqman), cells harvested on day 3
Procedure: To measure cell-based anti-HCV activity of the a Compound of Formula (I), replicon cells were seeded at 5000 cells/well in 96-well collagen I-coated Nunc plates in the presence of the Compound of Formula (I). Various concentrations of a Compound of Formula (I), typically in 10 serial 2-fold dilutions, were added to the assay mixture, with the starting concentration ranging from 250 μM to 1 μM. The final concentration of DMSO was 0.5%, fetal bovine serum was 5%, in the assay media. Cells were harvested on day 3 by the addition of 1× cell lysis buffer (Ambion cat #8721). The replicon RNA level was measured using real time PCR (Taqman assay). The amplicon was located in 5B. The PCR primers were: 5B.2F, ATGGACAGGCGCCCTGA (SEQ ID NO: 2); 5B.2R, […] (SEQ ID NO: 3); the probe sequence was FAM-labeled CACGCCATGCGCTGCGG (SEQ ID NO: 4). GAPDH RNA was used as endogenous control and was amplified in the same reaction as NS5B (multiplex PCR) using primers and VIC-labeled probe recommended by the manufacturer (PE Applied Biosystem). The real-time RT-PCR reactions were run on ABI PRISM 7900HT Sequence Detection System using the following program: 48° C. for 30 min, 95° C. for 10 min, 40 cycles of 95° C. for 15 sec, 60° C. for 1 min. The ΔCT values (CT5B-CTGAPDH) were plotted against the concentration of test compound and fitted to the sigmoid dose-response model using XLfit4 (MDL). EC50 was defined as the concentration of inhibitor necessary to achieve ΔCT=1 over the projected baseline; EC90 the concentration necessary to achieve ΔCT=3.2 over the baseline. Alternatively, to quantitate the absolute amount of replicon RNA, a standard curve was established by including serially diluted T7 transcripts of replicon RNA in the Taqman assay. All Taqman reagents were from PE Applied Biosystems. Such an assay procedure was described in detail in e.g. Malcolm et al., Antimicrobial Agents and Chemotherapy 50: 1013-1020 (2006).
HCV Replicon assay data for selected Compounds of Formula (I) is provided below in Table 3, wherein the compound numbers correspond to the compound numbering set forth in the above specification. The data is designated as follows: “A” for EC50 values less than 1.0 micromolar (μM), “B” for EC50 values between 1.0 and 5.0 μM and “C” for EC50 values greater than 5.0 μM.

[2] = target: T1, HCV NS5B polymerase (NS5BΔCT21, from HCV-Con 1 isolate, genotype 1b) (Hepatitis C virus genotype 1b, UniProt Q9WMX2); experiment: HCV NS5B Polymerase Inhibition Assay; assay type: biochemical; conditions: incorporation of radiolabeled CTP, 22° C. for 2 hours
T1 construct: A soluble C-terminal 21-amino acid truncated NS5B enzyme form; polyhistidine (C); made in house; host or cells: Escherichia coli
From the text: A chemically synthesized 75-mer version, designated DCoH75, whose sequence matches the 3′-end of D-RNA, and DCoH75ddC, where the 3′-terminal cytidine of DCoH75 is replaced by dideoxycytidine, were used for assaying the NS5B enzyme activity as described in Ferrari et al., 12th International Symposium on HCV and Related Viruses, P-306 (2005). The sequence of the template RNA was: 5′-UGUGCCGGUCUUUCUGAACGGGAUAUAAACCUGGCCAGCUUCAUCGAACAAGUUGCCGUGUCUAUGACAUAGAUC-3′ (SEQ ID NO: 1). A soluble C-terminal 21-amino acid truncated NS5B enzyme form (NS5BΔCT21, from HCV-Con 1 isolate, genotype 1b, Genbank accession number AJ238799) was produced and purified from Escherichia coli as C-terminal polyhistidine-tagged fusion protein as described in Ferrari et al., J. Virol. 73:1649-1654 (1999). A typical assay contained 20 mM Hepes pH 7.3, 10 mM MgCl2, 60 mM NaCl, 100 μg/ml BSA, 20 units/ml RNasin, 7.5 mM DTT, 0.1 μm ATP/GTP/UTP, 0.026 μM CTP, 0.25 mM GAU, 0.03 μM RNA template, 20 μCi/ml [^33P]-CTP, 2% DMSO, and 30 or 150 nM NS5B enzyme. Reactions were incubated at 22° C. for 2 hours, then stopped by adding 150 mM EDTA, washed in DE81 filter plate in 0.5M di-basic sodium phosphate buffer, pH 7.0, and counted using Packard TopCount after the addition of scintillation cocktail. Polynucleotide synthesis was monitored by the incorporation of radiolabeled CTP. The effect of the Compounds of Formula (I) on the polymerase activity was evaluated by adding various concentrations of a Compound of Formula (I), typically in 10 serial 2-fold dilutions, to the assay mixture. The starting concentrations ranged from 200 μM to 1 μM. An IC50 value for the inhibitor, defined as the compound concentration that provides 50% inhibition of polymerase activity, was determined by fitting the cpm data to the Hill equation Y=100/(1+10^((Log IC50−X)*HillSlope)), where X is the logarithm of compound concentration, and Y is the % inhibition. Ferrari et al., 12th International Symposium on HCV and Related Viruses, P-306 (2005) described in detail this assay procedure. It should be noted that such an assay as described is exemplary and not intended to limit the scope of the invention. The skilled practitioner can appreciate that modifications including but not limited to RNA template, primer, nucleotides, NS5B polymerase form, buffer composition, can be made to develop similar assays that yield the same result for the efficacy of the compounds and compositions described in the invention.
NS5B polymerase inhibition data for selected Compounds of Formula (I) is provided below in Table 2, wherein the compound numbers correspond to the compound numbering set forth in the above specification.

SMILES	EC50 [1] [µM]	IC50 [2] [µM]
CS(=O)(=O)NC(=O)c1c(-c2ccc[nH]c2=O)c2cc3c(cc2n1Cc1cc(F)ccc1F)CCC3 [Compound 1]	< 1	< 0.025
CS(=O)(=O)NC(=O)c1c(-c2ccc[nH]c2=O)c2cc3c(cc2n1Cc1ccc(O)cc1)CCC3 [Compound 2]	1 to 5	< 0.025
O=C(O)c1c(-c2ccc[nH]c2=O)c2cc3c(cc2n1Cc1cc(F)ccc1F)CCC3 [Compound 3]	1 to 5	< 0.025
CS(=O)(=O)NC(=O)c1c(-c2ccc[nH]c2=O)c2cc3c(cc2n1Cc1ccccc1O)CCC3 [Compound 4]	1 to 5	0.025 to 0.1
CS(=O)(=O)NC(=O)c1c(-c2ccc[nH]c2=O)c2cc3c(cc2n1Cc1ccc(F)cc1F)CCC3 [Compound 5]	1 to 5	0.025 to 0.1
CS(=O)(=O)NC(=O)c1c(-c2ccc[nH]c2=O)c2cc3c(cc2n1Cc1cccc(O)c1)CCC3 [Compound 6]	1 to 5	0.025 to 0.1
CS(=O)(=O)NC(=O)c1c(-c2ccc[nH]c2=O)c2cc3c(cc2n1Cc1ccc(OCc2ccccc2)cc1)CCC3 [Compound 8]	> 5	> 0.1
CS(=O)(=O)NC(=O)c1c(-c2ccc[nH]c2=O)c2cc3c(cc2n1Cc1ccccc1OCc1ccccc1)CCC3 [Compound 9]	> 5	> 0.1
CS(=O)(=O)NC(=O)c1c(-c2ccc[nH]c2=O)c2cc3c(cc2n1Cc1cccc(OCc2ccccc2)c1)CCC3 [Compound 10]		> 0.1
Nc1cc(Cn2c(C(=O)O)c(-c3ccc[nH]c3=O)c3cc4scnc4cc32)ccn1 [Compound 11]		> 0.1
CS(=O)(=O)NC(=O)c1c(-c2ccc[nH]c2=O)c2cc3scnc3cc2n1Cc1ccnc(N)c1 [Compound 12]	> 5	> 0.1
